In US20110003760A1, “ABNORMAL PROTEIN REMOVING METHOD” (priority 2005, published 2011):

Columns and labels:
[1] = system: carbonylated type I collagen in three-dimensional human skin model; assay: Carbonylated collagen in three-dimensional human skin model, type I collagen immunoprecipitation and Western blotting; format: cell-based; details: silybin 3 μM, Bletilla striata extract 0.1%, soybean saponin 0.0005%, alone or combined; for Relative photographic density (carbonylated collagen): Table 8, non-reduced protein, untreated without UV = 100%
Experimental: (§1) Three-dimensional human skin models are widely used in safety evaluation and effectiveness evaluation as a simulated model of human skin. In this test, TESTSKIN (LSE-high) (Toyobo Co., Ltd.) was used as a three-dimensional human skin model.
(§2) A culture medium was added to the outer well of TESTSKIN (LSE-high) and cultured for 24 hours. UVA and UVB were irradiated at 10 J/cm^2 and 100 mJ/cm^2, respectively. UVB was irradiated for 2 minutes at a UV intensity of […] using FL20S-E-30/DMR (Clinical Supply Co., Ltd.) to achieve a total irradiation dose of 100 mJ/cm^2. UV intensity was measured using a UV MONITOR MS-211-I (Eiko Instruments Co., Ltd.).
Thereafter, the culture solution was changed and each agent was added by 100 μl onto the tissues in the assay ring, after which the medium was cultured for 36 hours. […]
Using the protein derived from the three-dimensional human skin model extract treated with each agent, type I collagen was immunoprecipitated by means of a known method (Mizushima, et al., Jpn. J. Cancer Res. Vol. 93, pp. 652-659, 2002). […] The immunoprecipitate was washed three times using a STEN buffer solution, after which 50 μl of a SDS-PAGE sample buffer solution was added and the amount of carbonylated protein and amount of type I collagen were measured by means of Western blotting.
From the results shown in FIG. 7 and Table 7, it is clear that using silybin in combination with Bletilla striata extract, or using silybin in combination with soybean saponin, synergistically suppresses carbonylated protein. Next, whether or not carbonylation of type I collagen would be suppressed by using silybin in combination with Bletilla striata extract, or using silybin in combination with soybean saponin, was evaluated to check the possibility of using such combinations to remove oxidized collagen that accumulates with age to cause lines, sagging, dull complexion and other signs of aging skin. […]

[2] = system: trypsin-like proteasome activity in three-dimensional human skin model; assay: Proteasome activity in three-dimensional human skin model; format: cell-based; details: for proteasome activity compared to the sample not given any treatment: without UV irradiation
Experimental: as §1, §2
Thereafter, the culture solution was changed and each agent was added by 100 μl onto the tissues in the assay ring, after which the medium was cultured for 36 hours. Thereafter, the tissues were collected and a tissue extraction solution (50 mM Tris-HCl (pH 7.5), 0.5% (Octylphenoxy) polyethoxyethanol (Sigma-Aldrich Corp.)) was added, and then the mixture was homogenized using a Teflon (registered trademark) homogenizer. The homogenized mixture was centrifuged for 30 minutes at 10,000×G to remove tissue fragments, and then dialyzed overnight in distilled water at 4° C. Thereafter, the dialyzed mixture was freeze-dried to remove water. A tissue extraction solution was added to obtain a ×20 concentrate, and this concentrate was used as a three-dimensional skin model extract sample.
Proteasome activity was measured using a known method (Hayashi, et al., Mechanisms of Aging and Development, Vol. 102, pp. 55-66, 1998) based on cell extract samples.
The specific method is as follows. For the matrix to measure trypsin-like proteasome activity, t-butyloxycarbonyl-L-leucyl-L-arginyl-L-arginyl-L-4-methyl-coumaryl-7-amide (Peptide Institute, Inc.) was used. A cell extract sample containing protein by an equivalent of 10 μg was added to 10.5 μl of a 100 μM matrix solution prepared with 100 mM Tris-HCl (pH 8.0), after which a cell extraction solution was added to a total volume of 50 μl. The obtained solution was treated for 30 minutes at 37° C., after which the fluorescence intensity of the separated 7-amine-4-methyl coumarin was measured at an excitation wavelength (Ex) of 380 nm and absorption waveform (Em) of 440 nm. The result was obtained for each sample type treated with each agent, as an “average ±standard error” calculated from the measured values of three samples.
Based on the above results, it is clear that Bletilla striata extract and silybin promote proteasome activity in a three-dimensional skin model in a manner dependent on the concentration. Accordingly, whether or not a combined use of Bletilla striata extract and silybin would synergistically promote proteasome activity was evaluated. Also, whether or not a combined use of silybin and soybean saponin, a substance known to have an action to promote proteasome activity, would synergistically promote proteasome activity was evaluated. As a result, regardless of whether or not UV light was irradiated, using silybin (3 μM) in combination with Bletilla striata extract (0.1%; final extract concentration of 0.001%), or using silybin (3 μM) in combination with soybean saponin (0.0005%), promoted proteasome activity synergistically compared to when a sample was treated with silybin (3 μM), Bletilla striata extract (0.1%; final extract concentration of 0.001%) or soybean saponin (0.0005%) alone, as far as promotion of proteasome activity in a three-dimensional skin model was concerned (FIG. 12).

[3] = system: three-dimensional human skin model; assay: Cell toxicity at treatment concentrations in three-dimensional human skin model; details: at 3 and 10 μM
[4] = FIG. 11, 3 μM, under UV irradiation
[5] = FIG. 11, 10 μM, under UV irradiation
[6] = FIG. 12, under UV irradiation, silybin 3 μM, Bletilla striata extract 0.1%, soybean saponin 0.0005%, alone or combined

**Q.** For `COc1cc(C2Oc3cc([C@H]4Oc5cc(O)cc(O)c5C(=O)[C@@H]4O)ccc3OC2CO)ccc1O` (stereo partly shown) [Silybin, silybin], which “Relative photographic density (carbonylated collagen)” value ([1]; head printed UV (−)) is on record?
**A.** 430%

**Q.** And the “Relative photographic density (carbonylated collagen)” value ([1]; first column UV (−))?
**A.** 72%

**Q.** And the “amount of carbonylated collagen compared to the sample not given any treatment under UV irradiation” value ([1]; non-reduced protein, UV irradiation)?
**A.** 72%

**Q.** What about the “proteasome activity compared to the sample not given any treatment under UV irradiation (75%)” value [2, 4] of the same compound?
**A.** 140%

**Q.** And the “relative proteasome activity level” value [2, 4]?
**A.** 105%

**Q.** What about the “proteasome activity compared to the sample not given any treatment” value ([2]; FIG. 11, 3 μM) of the same compound?
**A.** 145%

**Q.** And the “proteasome activity compared to the sample not given any treatment under UV irradiation (75%)” value [2, 5]?
**A.** 170%

**Q.** And the “relative proteasome activity level” value [2, 5]?
**A.** 128%

**Q.** And the “proteasome activity compared to the sample not given any treatment” value ([2]; FIG. 11, 10 μM)?
**A.** 178%

**Q.** And the “proteasome activity compared to the sample not given any treatment under UV irradiation (73%)” value [2, 6]?
**A.** 121%

**Q.** And the “relative proteasome activity level” value [2, 6]?
**A.** 88%

**Q.** And the “proteasome activity compared to the sample not given any treatment” value ([2]; FIG. 12, silybin 3 μM, Bletilla striata extract 0.1%, soybean saponin 0.0005%, alone or combined)?
**A.** 125%

**Q.** And the cell toxicity [3]?
**A.** does not occur
